Laboratory results published in the NIST ThermoML archive (doi:10.1016/j.fluid.2007.05.030).
Several values for one entry are separate records, joined by “and”; a condition that tells them apart may be missing. Equal values may be shown once.

Legend:
[1] = excess molar enthalpy (molar enthalpy of mixing); xn = mol fraction of the nth substance listed; conditions: 101 kPa, Liquid
[2] = Liquid; for mass density: 101.33 kPa

CC(=O)OCCOC(C)=O [ethylene diacetate] + O
[1], 323.15 K, Flow calorimetry
Conditions | excess molar enthalpy [kcal/mol]
x2 = 0.0844 | 0.15
x2 = 0.1574 | 0.24
x2 = 0.2211 | 0.299
x2 = 0.2771 | 0.331
x2 = 0.3713 | 0.36
x2 = 0.4473 | 0.361
x2 = 0.5624 | 0.304
x2 = 0.6455 | 0.245
x2 = 0.7342 | 0.182
x2 = 0.8138 | 0.125
x2 = 0.8793 | 0.0798
x2 = 0.9161 | 0.0535
x2 = 0.9444 | 0.0344
x2 = 0.9668 | 0.0189
x2 = 0.9808 | 0.00808

CC(=O)OCCO [2-hydroxyethyl acetate]
[2]
Conditions | mass density [kg/m3] | vapor or sublimation pressure
283.16 K | 1118.6 | –
288.14 K | 1113.8 | –
293.14 K | 1108.9 | –
298.14 K | 1104.1 | –
303.14 K | 1099.2 | –
308.14 K | 1094.4 | –
313.14 K | 1089.5 | –
318.14 K | 1084.6 | –
323.14 K | 1079.7 | –
328.14 K | 1074.8 | –
333.14 K | 1069.9 | –
338.14 K | 1064.9 | –
343.14 K | 1059.9 | –
363.15 K | – | 2.228 kPa [middle of 4 runs]
374.42 K | – | 3.79 kPa
403.66 K | – | 13.81 kPa
417.65 K | – | 23.64 kPa
427.41 K | – | 33.46 kPa
434.9 K | – | 43.3 kPa
440.57 K | – | 53.13 kPa
444.25 K | – | 62.95 kPa
448.78 K | – | 72.79 kPa

CC(=O)OCCOC(C)=O [ethylene diacetate] + CC(=O)O
[1], 323.15 K, Flow calorimetry
Conditions | excess molar enthalpy [kcal/mol]
x2 = 0.1086 | 0.0418
x2 = 0.2045 | 0.0657
x2 = 0.2899 | 0.0791
x2 = 0.3665 | 0.0863
x2 = 0.4354 | 0.0894
x2 = 0.4979 | 0.0894
x2 = 0.5547 | 0.0877
x2 = 0.6067 | 0.0834
x2 = 0.6544 | 0.0784
x2 = 0.6982 | 0.0736
x2 = 0.7388 | 0.0669
x2 = 0.7763 | 0.06
x2 = 0.8112 | 0.0526
x2 = 0.8437 | 0.0447
x2 = 0.8741 | 0.0375
x2 = 0.9025 | 0.0292
x2 = 0.9291 | 0.0218
x2 = 0.9542 | 0.014
x2 = 0.9778 | 0.00669

CC(=O)OCCO [2-hydroxyethyl acetate] + CC(=O)OCCOC(C)=O
[1], 323.15 K, Flow calorimetry
Conditions | excess molar enthalpy [kcal/mol]
x1 = 0.103 | 0.0688
x1 = 0.231 | 0.13
x1 = 0.3777 | 0.163
x1 = 0.5367 | 0.167
x1 = 0.7024 | 0.142
x1 = 0.8299 | 0.098
x1 = 0.9272 | 0.0495

CC(=O)O [acetic acid]
Conditions | vapor or sublimation pressure
[2], 363.15 K | 39.68 kPa and 39.67 kPa and 39.66 kPa

CC(=O)OCCO [2-hydroxyethyl acetate] + O
[1], 323.15 K, Flow calorimetry
Conditions | excess molar enthalpy [kcal/mol]
x2 = 0.1179 | -0.192
x2 = 0.2578 | -0.176
x2 = 0.3978 | -0.117
x2 = 0.546 | -0.0727
x2 = 0.6907 | -0.0373
x2 = 0.825 | -0.0169
x2 = 0.9399 | -0.00478

O [water]
Conditions | vapor or sublimation pressure
[2], 363.15 K | 70.09 kPa and 69.93 kPa

CC(=O)OCCO [2-hydroxyethyl acetate] + OCCO
[1], 323.15 K, Flow calorimetry
Conditions | excess molar enthalpy [kcal/mol]
x1 = 0.0784 | 0.0435
x1 = 0.1656 | 0.0808
x1 = 0.2632 | 0.111
x1 = 0.3732 | 0.132
x1 = 0.4718 | 0.139
x1 = 0.5815 | 0.136
x1 = 0.7043 | 0.117
x1 = 0.8065 | 0.0894
x1 = 0.9188 | 0.043

CC(=O)OCCOC(C)=O [ethylene diacetate] + OCCO
[1], 323.15 K, Flow calorimetry
Conditions | excess molar enthalpy [kcal/mol]
x1 = 0.0219 | 0.0483
x1 = 0.0451 | 0.0966
x1 = 0.0698 | 0.142
x1 = 0.096 | 0.19
x1 = 0.1241 | 0.232
x1 = 0.1541 | 0.268
x1 = 0.1862 | 0.302
x1 = 0.2208 | 0.332
x1 = 0.258 | 0.362
x1 = 0.2982 | 0.389
x1 = 0.3419 | 0.412
x1 = 0.3893 | 0.434
x1 = 0.4411 | 0.456
x1 = 0.4979 | 0.466
x1 = 0.5604 | 0.464
x1 = 0.6296 | 0.452
x1 = 0.7066 | 0.418
x1 = 0.7927 | 0.345
x1 = 0.8898 | 0.216

CC(=O)O [acetic acid] + OCCO
excess molar enthalpy [kcal/mol], [1]
Conditions | 298.15 K | 323.15 K
x1 = 0.0489 | 0.00158 | –
x1 = 0.049 | – | 0.00485
x1 = 0.098 | 0.000992 | 0.007
x1 = 0.1472 | -0.000488 | 0.00631
x1 = 0.1964 | -0.0027 | –
x1 = 0.1965 | – | 0.00519
x1 = 0.2458 | -0.00595 | –
x1 = 0.2459 | – | 0.00304
x1 = 0.2953 | -0.00837 | –
x1 = 0.2954 | – | 0.00172
x1 = 0.3449 | -0.011 | –
x1 = 0.345 | – | -0.000206
x1 = 0.3946 | -0.0134 | –
x1 = 0.3947 | – | -0.00151
x1 = 0.4444 | -0.0147 | –
x1 = 0.4445 | – | -0.00229
x1 = 0.4944 | -0.0151 | –
x1 = 0.4945 | – | -0.00167
x1 = 0.5444 | -0.0136 | –
x1 = 0.5445 | – | -0.000263
x1 = 0.5946 | -0.0107 | –
x1 = 0.5947 | – | 0.00282
x1 = 0.6449 | -0.00621 | –
x1 = 0.645 | – | 0.00734
x1 = 0.6953 | 0.00032 | 0.0126
x1 = 0.7458 | 0.00667 | 0.0189
x1 = 0.7964 | 0.0138 | 0.0244
x1 = 0.8471 | 0.0196 | –
x1 = 0.8472 | – | 0.0289
x1 = 0.898 | 0.0224 | 0.0296
x1 = 0.9489 | 0.0184 | 0.0225

OCCO [1,2-ethanediol]
Conditions | vapor or sublimation pressure
[2], 363.15 K | 1.202 kPa and 1.28 kPa and 1.38 kPa

CC(=O)OCCOC(C)=O [ethylene diacetate]
Conditions | vapor or sublimation pressure
[2], 363.15 K | 2.744 kPa [middle of 4 runs]

CC(=O)OCCO [2-hydroxyethyl acetate] + CC(=O)O
[1], 323.15 K, Flow calorimetry
Conditions | excess molar enthalpy [kcal/mol]
x2 = 0.0798 | -0.0241
x2 = 0.1906 | -0.0502
x2 = 0.2919 | -0.0636
x2 = 0.414 | -0.0664
x2 = 0.5236 | -0.0576
x2 = 0.6224 | -0.0437
x2 = 0.7332 | -0.0223
x2 = 0.8318 | -0.00323
x2 = 0.9203 | 0.00684
